For this assay, the system named is CEM cells HIV-1 protection, formazan growth assay. The assay can be described thus: NCI AIDS Antiviral Assay. As to conditions: for IC50: measured here: growth of uninfected CEM cells. The essentials:
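Protection of CEM cells against HIV-1 was scored from cell growth (soluble formazan) across five concentrations, with parallel uninfected cells. Lack of protection may reflect toxicity.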

The source made the active and inactive calls.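 Rule for the calls: active = compounds giving half or more protection of infected cells from virus-caused growth loss, again on retest; inactive = the rest.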

By EC50 is commonly meant the concentration giving half of the maximal effect. As usually defined, the IC50 is the concentration at which inhibition is half-maximal. Lower therefore signals inhibition by little substance.

For `CC(=O)[CH-]C(C)=O.CC(=O)[CH-]C(C)=O.N=CC=N.[Sn+2]`, the EC50 was > 69.2 µM and the IC50 came to 1.45 µM.

Consider `Clc1ccccc1C1N2CCCCC2[C@@H]2c3[nH]c4ccccc4c3CCN12` (stereo not given in full), for which the EC50 was > 50.1 µM and the IC50 was > 50.1 µM.

`CC(=O)NC1=NC(=O)/C(=C/c2ccc(/C=C3/C(=O)N=C(NC(C)=O)N3C)cc2)N1C`: the EC50 was > 200 µM and the IC50 was 151 µM.

On to `CSc1nc(N)c2c(n1)N(C)C=NS2(=O)=O`, for which the EC50 is > 28.2 µM and the IC50 is > 28.2 µM.

With `O=C(c1ccc([N+](=O)[O-])cc1)c1no[n+]([O-])c1C(=O)c1ccc([N+](=O)[O-])cc1`, the result was inactive.

For the compound `O=C1OC2C=CCC1C2` (stereo not given), the EC50 is > 200 µM and the IC50 was > 200 µM.

For `O=[N+]([O-])c1cccc(C2ON2C2CCCCC2)c1` (stereo not given), the EC50 was > 89.1 µM and the IC50 came out at 5.01 µM.

Consider `Oc1ccccc1C=Nc1ccccc1N=Cc1ccccc1O`, for which the EC50 is > 4.57 µM and the IC50 is > 4.57 µM.

In the case of `CC(C)(CCc1nc2ccccc2[nH]1)C(=O)O`, the EC50 was > 200 µM and the IC50 was > 200 µM.

`Cc1nnc2n(c1=O)CCCN2C`: the EC50 is > 200 µM and the IC50 was > 200 µM.

In the case of `COc1c(OC)c(O)c2c(=O)c(OC)c(-c3ccc4c(c3)OCO4)oc2c1O`, the EC50 was > 200 µM and the IC50 was 74.1 µM.

`COC(=O)[C@H](Cc1ccccc1)NC(=O)N(CCNCCNC(=O)OC(C)(C)C)c1ccccc1`: the EC50 is > 200 µM and the IC50 was > 100 µM.

Turning to `CCOc1ccc(NC(=O)/C(CC(=O)c2c[n+](=O)c3ccccc3n2[O-])=N\OCCCc2ccccc2)cc1`, the EC50 is > 123 µM and the IC50 was > 123 µM.

For `O=C1CC2CC(CC3(CO3)C2)C1F` (stereo not given), the EC50 is > 200 µM and the IC50 is > 200 µM.

Take `CC(=O)OC(OC(C)=O)n1cc(C=O)c2ccccc21`: the EC50 was > 200 µM and the IC50 was > 200 µM.

In the case of `O=C1C(Cl)=C(N2CCN(C3=C(Cl)C(=O)c4ccccc4C3=O)CC2)C(=O)c2ccccc21`, the EC50 is > 7.76 µM and the IC50 amounted to 1.32 µM.

Consider `Cc1cc2c(C(C)C)c(O)c(O)c(C=NCCO)c2c(O)c1-c1c(C)cc2c(C(C)C)c(O)c(O)c(C=NCCO)c2c1O`, for which the result was inactive.

For `COC1=C(OC)C(=O)c2cc(C)c(=O)c(C)cc2C1=O`, the EC50 is > 13.2 µM and the IC50 is 3.98 µM.

As for `COCCN1C2=CCCCC2=Nc2c1nc(N)[nH]c2=O`, the result was inactive.

With `O=C(CN1CCCC1=O)CS(=O)(=O)c1ccccc1`, the EC50 is > 891 µM and the IC50 is > 891 µM.

Regarding `Nc1ccc(C(=O)CC2(O)C(=O)Nc3c(Cl)cc(Cl)cc32)cc1` (stereo not given), the EC50 was > 33.9 µM and the IC50 stood at 18.6 µM.

`O=[N+]([O-])c1cccc(-c2ncc3c(n2)-c2ccccc2C3)c1`: the result was inactive.

With `CC1=CCC[C@@H]2C1(C)CCC(C)[C@@]2(C)CC1=CC(=O)C=CC1=O` (stereo not given in full), the EC50 was > 50.1 µM and the IC50 was 11.5 µM.

`CN(O)C(=O)c1cccc(Cl)c1`: the EC50 was > 200 µM and the IC50 turned out to be 112 µM.

Turning to `O=c1cc(CO)[nH]cc1O`, the result was inactive.

As to `CCOC(=O)c1[nH]n(-c2ccccc2)c(=O)c1C=NC(=S)C(N)=S`, the EC50 is > 200 µM and the 50% inhibitory concentration (IC50) is 33.9 µM.

Turning to `Cn1c(O)c(N=NC(N)=S)c2ccccc21`, the EC50 was > 200 µM, the outcome was inactive and the IC50 was 186 µM.

As to `COc1ccc(C(=O)/C(=N/Nc2ccccc2)c2ccc(OC)cc2)cc1`, the outcome was inactive.

Consider `Cc1cnc2nc(N)nc(N)c2n1`, for which the EC50 is > 200 µM and the IC50 was > 200 µM.

Consider `CN(C)C12CCCCC1S(=O)(=O)C2` (stereo not given), for which the EC50 was > 891 µM and the half-maximal inhibitory concentration (IC50) is > 891 µM.

On to `CC(C)(C)OC[C@H]1N([C@H](COCc2ccccc2)c2ccccc2)C(=O)C1(C)C`, for which the EC50 is > 170 µM and the IC50 came out at 117 µM.

In the case of `COc1ccc(C(=O)N=C2N(c3ccccc3)C(=Nc3ccccc3)C(=Nc3ccccc3)N2c2ccccc2)cc1`, the EC50 is > 200 µM and the IC50 amounted to 8.32 µM.

For `COc1cc(OC)c2nc3occc3c(OC)c2c1`, the EC50 was > 363 µM and the IC50 was determined as 58.9 µM.

For the compound `CC1C[C@@H]2OC(=O)C(C)[C@H]2C[C@]2(C)C(O)CC(O)C12` (stereo not given in full), the EC50 was > 933 µM and the IC50 amounted to 47.9 µM.

Consider `CCOC(=O)/C(=C\c1ccc(OC)cc1)C(C)=O`, for which the EC50 is > 275 µM and the IC50 came to 117 µM.

Turning to `COc1cccc(/C=C/C(=O)c2ccccc2)c1O`, the EC50 was 14.5 µM and the IC50 amounted to 112 µM.

For the compound `CC(=O)NCCSSSCCNC(C)=O`, the EC50 was > 200 µM and the IC50 was 0.891 µM.

Turning to `O=C1NC(=S)S/C1=C\c1cccs1`, the EC50 is > 60.3 µM and the IC50 was > 60.3 µM.

For `CCSc1nc(=[N+]2CCCC2)ss1`, the outcome was inactive.

For `Cc1cc(C)c2c(c1)CC1(Cc3ccc(C)c(C)c3C1=O)C2=O` (stereo not given), the EC50 is > 100 µM and the IC50 was > 100 µM.

`Oc1ccc(-c2c3ccccc3c(-c3ccc(OCCBr)cc3)c3ccccc23)cc1`: the EC50 is > 100 µM and the IC50 was > 100 µM.

`O=C(O)CCCCCCCCCCOc1ccc(I)cc1`: the EC50 is > 200 µM and the IC50 is 28.2 µM.

With `CC(Cl)c1nc2c(c(=O)[nH]1)C1CCCCCCCN1C(=S)N2C` (stereo not given), the EC50 is > 200 µM and the IC50 amounted to 12.3 µM.

Take `C=C1C[C@H]2[C@@H]3C=C(C)C4=CC(=O)CC[C@]4(C)[C@H]3CC[C@]2(C)[C@@]1(OC(C)=O)C(C)=O`: the EC50 was > 200 µM and the IC50 came out at 28.2 µM.

For `COC(=O)C(=O)C(CC(=O)Nc1c(C)cccc1C)C(=O)OC` (stereo not given), the EC50 is > 776 µM and the IC50 is > 776 µM.

For `N#CCCC(C#N)(CCC#N)c1ccccc1`, the EC50 is > 813 µM and the IC50 was > 813 µM.

As to `CC1(CO)CCC(n2ccc(N)nc2=O)O1` (stereo not given), the EC50 was 30.9 µM and the IC50 is > 200 µM.

With `CC(C)(C)N/N=C(\C(=O)NC1=C(Cl)C(=O)c2ccccc2C1=O)C1C=CCS1(=O)=O` (stereo not given), the EC50 is > 209 µM and the IC50 was determined as 12.9 µM.

Take `Cn1cc(NC(=O)c2cc(NC(=O)[C@@H]3CCC(N)=N3)c[nH]2)cc1C(=O)NCCC(=N)N`: the result was inactive.

As to `NS(=O)(=O)c1ccc(N=Cc2ccccc2O)cc1`, the EC50 was > 200 µM and the IC50 was > 200 µM.

As for `C[N+]12C=CC=C1C(N1CCCC1)c1scc(-c3ccc(Br)cc3)c12` (stereo not given), the EC50 was > 200 µM and the IC50 was 10.7 µM.

As for `NC(=O)c1nc(C2OC(CO)C(O)C2O)cs1` (stereo not given), the EC50 is > 200 µM and the IC50 was > 200 µM.

Turning to `O=C1C(=Nc2ccccc2)Oc2cc(O)ccc21`, the EC50 is > 200 µM and the IC50 came out at 17.8 µM.

Take `Cn1cc(NC(=O)Nc2cc(C(=O)Nc3cc(C(=O)Nc4ccc(S(=O)(=O)O)c5cccc(S(=O)(=O)O)c45)n(C)c3)n(C)c2)cc1C(=O)Nc1cc(C(=O)Nc2ccc(S(=O)(=O)O)c3cccc(S(=O)(=O)O)c23)n(C)c1`: the outcome was inactive.

For the origin of these results see PubChem BioAssay AID179 (DTP/NCI, 2004).
